From patent US6911221B2, “Anti-neoplastic drug” (priority 2001, dated 2005)

What was measured:
[1] = tested on: MADB106 tumor cells; assay: Pulmonary metastasis count after tail vein injection of MADB106 tumor cells, with or without β-receptor agonist MP; assay type: in vivo, Fischer rats; conditions: for effect of β-receptor agonist on number of MADB106 metastases (in words): MP injected at tumor cell inoculation
Method: 3. The experimental animals were divided into a test group and a control group. The animals in the test group were fed with 0.1, 0.5, 2 g/kg body weight ACNO mixed and standard powdered rodent food to which water was added (test food), every day. The animals in the control group received the same wet food mixture without ACNO (control food) in the same amount. All animals were fed at regular times every day. To adjust animals to the feeding protocol, all rats received the wet mixture without ACNO for 3 days before each experiment. Thereafter, the animals were fed test food and control food, respectively. Rats from all groups consumed more than 95% of the food each day. Approximately 70% of it was consumed during the dark phase. Body weight of each animal was monitored twice a week during the experiment. 4. MADB106 tumor cell—MADB106 cell was obtained from a pulmonary metastasis of a mammary adenocarcinoma (MADB100) by a special incubation. 5. Induction and counting of tumor metastasis—Rats were lightly anesthetized with halothane, and then 10^5 MADB106 tumor cells were injected into their tail vein. […] Rats were anesthetized with halothane after they were fed with ACNO for 3 weeks counted from the day of tumor inoculation, and their lungs were removed and placed in Bouin solution (72% saturated picric acid solution, 23% formaldehyde [37% solution] and 5% glacial acetic acid) for 24 h. Thereafter, the lungs were washed with ethanol, and then the cell number of pulmonary metastasis were counted by two experimenters unaware of the group origin (in a blind technique), independently. The obtained data were analyzed statistically. […] healthy […] Fischer rats that were 7-8 weeks old and of 120-170 g body weight (48 females and 61 males), were randomly divided into 2 groups, an experiment group and a control group. […] Thereafter, the lungs were washed with ethanol, and then the cell number of pulmonary metastasis were counted by two experimenters unaware of the group origin (in a blind technique), independently. The obtained data were analyzed statistically.

[2] = tested on: LEWIS lung cancer; conditions: subcutaneous transplantation; cited from earlier work
[3] = tested on: B16 melanoma; conditions: subcutaneous transplantation; cited from earlier work
[4] = tested on: S180 sarcoma; conditions: subcutaneous transplantation; cited from earlier work
[5] = tested on: NK and IL-2 activity; conditions: oral; lung cancer implanted mice and normal mice; cited from earlier work

Structure (SMILES) | effect of β-receptor agonist on number of MADB106 metastases (in words) [1] | effect of β-receptor agonist on number of MADB106 metastases (in words) ([1]; listed as Metaproterenol) | cell number of MADB106 metastases ([1]; control food plus MP injection, NS controls 70+14) | inhibition rate [2] | inhibition rate [3] | inhibition rate [4] | IL-2 activity [5] | NK activity [5]
CC(C)NCC(O)c1cc(O)cc(O)c1 (centres unmarked) [MP, Metaproterenol] | significantly increased the cells number of metastases | significantly increased the number of metastases | 255+32 | – | – | – | – | –
CC(C)=CCC[C@](C)(O)[C@H]1CC[C@]2(C)[C@@H]1[C@H](O)C[C@@H]1[C@@]3(C)CC[C@H](O[C@@H]4O[C@H](CO)[C@@H](O)[C@H](O)[C@H]4O[C@@H]4O[C@H](CO)[C@@H](O)[C@H](O)[C@H]4O)C(C)(C)[C@@H]3CC[C@]12C [Rg3, ginsenoside Rg3] | – | – | – | 50-60% | 50-60% | 50-60% | remarkably enhance | remarkably enhance
